Measurements taken from patent US20260007131A1, “HERBICIDAL COMPOSITION CONTAINING DIFLUOROBUTENOIC ACID AMIDE COMPOUND” (ISHIHARA SANGYO KAISHA, LTD., priority 2022, published 2026).

How the values were obtained:
Type in all cases: in vivo
[1] = tested on: barnyardgrass (Echinochloa crus-galli); experiment: Herbicidal effect on barnyardgrass (foliar treatment)
Experimental: (§1) Upland soil was put into a 1/300,000 hectare (ha) pot, seeds of barnyardgrass (Echinochloa crus-galli) were sown, and about 1.5 cm of cover soil was put. The barnyardgrass was grown for 10 days in a greenhouse until it reached a predetermined leaf stage. […] The spray solution was sprayed over the grown barnyardgrass with a small sprayer for foliar treatment.
(§2) Upland soil was put into a 1/300,000 hectare (ha) pot, seeds of barnyardgrass (Echinochloa crus-galli), crabgrass (Digitaria sanguinalis), green foxtail (Setaria viridis), wild oat (Avena fatua), Italian ryegrass (Lolium multiflorum), foxtail shortawn (Alopecurus aequalis), annual bluegrass (Poa annua), redroot pigweed (Amaranthus retroflexus), common chickweed (Stellaria media) common lambsquarters (Chenopodium album) and black nightshade (Solanum nigrum) were sown, and about 1.5 cm of cover soil was put. The plants were grown for 10 days in a greenhouse until they reached a predetermined leaf stage.

[2] = tested on: crabgrass (Digitaria sanguinalis); experiment: Herbicidal effect on crabgrass (foliar treatment)
Experimental: as §1, §2

[3] = tested on: green foxtail (Setaria viridis); experiment: Herbicidal effect on green foxtail (foliar treatment)
Experimental: as §1, §2

[4] = tested on: wild oat (Avena fatua); experiment: Herbicidal effect on wild oat (foliar treatment)
Experimental: as §1, §2

[5] = tested on: Italian ryegrass (Lolium multiflorum); experiment: Herbicidal effect on Italian ryegrass (foliar treatment)
Experimental: as §1, §2

[6] = tested on: foxtail shortawn (Alopecurus aequalis); experiment: Herbicidal effect on foxtail shortawn (foliar treatment)
Experimental: as §1, §2

[7] = tested on: annual bluegrass (Poa annua); experiment: Herbicidal effect on annual bluegrass (foliar treatment)
Experimental: as §1, §2

[8] = tested on: redroot pigweed (Amaranthus retroflexus); experiment: Herbicidal effect on redroot pigweed (foliar treatment)
Experimental: as §1, §2

[9] = tested on: common chickweed (Stellaria media); experiment: Herbicidal effect on common chickweed (foliar treatment)
Experimental: as §1, §2

[10] = tested on: common lambsquarters (Chenopodium album); experiment: Herbicidal effect on common lambsquarters (foliar treatment)
Experimental: as §1, §2

[11] = tested on: black nightshade (Solanum nigrum); experiment: Herbicidal effect on black nightshade (foliar treatment)
Experimental: as §1, §2

[12] = tested on: barnyardgrass (Echinochloa crus-galli); experiment: Herbicidal effect on barnyardgrass (soil treatment)
Excerpt: (§3) Upland soil was put into a 1/300,000 hectare (ha) pot, seeds of barnyardgrass (Echinochloa crus-galli) were sown, and about 1.5 cm of cover soil was put. […] On the next day after sowing, the spray solution was sprayed with a small sprayer for soil treatment.
(§4) Upland soil was put into a 1/300,000 hectare (ha) pot, seeds of barnyardgrass (Echinochloa crus-galli), crabgrass (Digitaria sanguinalis), green foxtail (Setaria viridis), Italian ryegrass (Lolium multiflorum), redroot pigweed (Amaranthus retroflexus) and common chickweed (Stellaria media) were sown, and about 1.5 cm of cover soil was put.

[13] = tested on: crabgrass (Digitaria sanguinalis); experiment: Herbicidal effect on crabgrass (soil treatment)
Excerpt: as §3, §4

[14] = tested on: green foxtail (Setaria viridis); experiment: Herbicidal effect on green foxtail (soil treatment)
Excerpt: as §3, §4

[15] = tested on: Italian ryegrass (Lolium multiflorum); experiment: Herbicidal effect on Italian ryegrass (soil treatment); details: Comparative Test 2, Italian ryegrass, read-out: Growth inhibition rate
Excerpt: as §3, §4

[16] = tested on: redroot pigweed (Amaranthus retroflexus); experiment: Herbicidal effect on redroot pigweed (soil treatment)
Excerpt: as §3, §4

[17] = tested on: mexican burningbush (Kochia scoparia); experiment: Herbicidal effect on mexican burningbush (soil treatment); details: Bassia scoparia, 14th day, read-out: growth inhibition rate
Excerpt: Upland soil was put into a 1/300,000 hectare (ha) pot, seeds of barnyardgrass (Echinochloa crus-galli) were sown, and about 1.5 cm of cover soil was put. The Invention Compound was weighed to achieve a predetermined active ingredient amount, dissolved in acetone (containing 0.5 vol % of surfactant (TritonX-100: manufactured by Kishida Chemical Co., Ltd.)) or dimethyl sulfoxide and diluted with water (containing 0.1 vol % of agricultural spreader (Surfactant WK: manufactured by MARUWA Biochemical Co., Ltd.)) in an amount corresponding to 1,000 liter per hectare, to prepare a spray solution. On the next day after sowing, the spray solution was sprayed with a small sprayer for soil treatment.
On the 14th day after the soil treatment, the state of growth of each plant was visually observed.
To confirm herbicidal effect on mexican burningbush (Kochia scoparia), the same test as in Test Example 2 (2-1) (soil treatment) was conducted using the following compounds.

[18] = tested on: common chickweed (Stellaria media); experiment: Comparative Test 2: herbicidal effect on common chickweed (soil treatment); details: Comparative Test 2, common chickweed, read-out: Growth inhibition rate
Excerpt: Upland soil was put into a 1/300,000 hectare (ha) pot, seeds of barnyardgrass (Echinochloa crus-galli), crabgrass (Digitaria sanguinalis), green foxtail (Setaria viridis), Italian ryegrass (Lolium multiflorum), redroot pigweed (Amaranthus retroflexus) and common chickweed (Stellaria media) were sown, and about 1.5 cm of cover soil was put. The Invention Compound (Aa-1-1, Aa-9-2) or the compound 4b described in Patent Document 1 was weighed to achieve a predetermined active ingredient dose, dissolved in acetone (containing 0.5 vol % of surfactant (TritonX-100: manufactured by Kishida Chemical Co., Ltd.)) or dimethyl sulfoxide and diluted with water (containing 0.1 vol % of agricultural spreader (Surfactant WK: manufactured by MARUWA Biochemical Co., Ltd.) in an amount corresponding to 1,000 liter per hectare, to prepare each spray solution. On the next day after sowing, each spray solution was sprayed with a small sprayer for soil treatment. On the 14th day after the soil treatment, the state of growth of each plant was visually observed, and the herbicidal effect was evaluated in accordance with the growth inhibition rate (%) of from 0 (equivalent to the non-treated area) to 100 (complete kill).

[19] = barnyardgrass, 250 g/ha, 14th day, read-out: growth inhibition rate
[20] = crabgrass, 250 g/ha, 14th day, read-out: growth inhibition rate
[21] = green foxtail, 250 g/ha, 14th day, read-out: growth inhibition rate
[22] = redroot pigweed, 250 g/ha, 14th day, read-out: growth inhibition rate

COC(=O)[C@H]1C[C@@H](NC(=O)C(F)(F)/C=C/c2cc(F)cc(F)c2)C1 [Aa-1-1]
inhibition at 500 g/ha ([1]; Comparative Test 1, barnyardgrass, 500 g/ha, read-out: Growth inhibition rate): ≥ 90%
inhibition at 1000 g/ha ([1]; Comparative Test 1, barnyardgrass, 1000 g/ha, read-out: Growth inhibition rate): ≥ 90%
inhibition at 250 g/ha [1, 19]: ≥ 70%
inhibition at 500 g/ha ([2]; Comparative Test 1, crabgrass, 500 g/ha, read-out: Growth inhibition rate): ≥ 90%
inhibition at 1000 g/ha ([2]; Comparative Test 1, crabgrass, 1000 g/ha, read-out: Growth inhibition rate): ≥ 90%
inhibition at 250 g/ha [2, 20]: ≥ 70%
inhibition at 500 g/ha ([3]; Comparative Test 1, green foxtail, 500 g/ha, read-out: Growth inhibition rate): ≥ 90%
inhibition at 1000 g/ha ([3]; Comparative Test 1, green foxtail, 1000 g/ha, read-out: Growth inhibition rate): ≥ 90%
inhibition at 250 g/ha [3, 21]: ≥ 70%
inhibition at 500 g/ha ([4]; Comparative Test 1, wild oat, 500 g/ha, read-out: Growth inhibition rate): ≥ 90%
inhibition at 1000 g/ha ([4]; Comparative Test 1, wild oat, 1000 g/ha, read-out: Growth inhibition rate): ≥ 90%
inhibition at 250 g/ha ([4]; wild oat, 250 g/ha, 14th day, read-out: growth inhibition rate): ≥ 70%
inhibition at 500 g/ha ([5]; Comparative Test 1, Italian ryegrass, 500 g/ha, read-out: Growth inhibition rate): ≥ 90%
inhibition at 1000 g/ha ([5]; Comparative Test 1, Italian ryegrass, 1000 g/ha, read-out: Growth inhibition rate): ≥ 90%
inhibition at 250 g/ha ([5]; Italian ryegrass, 250 g/ha, 14th day, read-out: growth inhibition rate): ≥ 70%
inhibition at 500 g/ha ([6]; Comparative Test 1, foxtail shortawn, 500 g/ha, read-out: Growth inhibition rate): ≥ 90%
inhibition at 1000 g/ha ([6]; Comparative Test 1, foxtail shortawn, 1000 g/ha, read-out: Growth inhibition rate): ≥ 90%
inhibition at 250 g/ha ([6]; foxtail shortawn, 250 g/ha, 14th day, read-out: growth inhibition rate): ≥ 70%
inhibition at 500 g/ha ([7]; Comparative Test 1, annual bluegrass, 500 g/ha, read-out: Growth inhibition rate): ≥ 90%
inhibition at 1000 g/ha ([7]; Comparative Test 1, annual bluegrass, 1000 g/ha, read-out: Growth inhibition rate): ≥ 90%
inhibition at 250 g/ha ([7]; annual bluegrass, 250 g/ha, 14th day, read-out: growth inhibition rate): ≥ 70%
inhibition at 500 g/ha ([8]; Comparative Test 1, redroot pigweed, 500 g/ha, read-out: Growth inhibition rate): 70 to 90%
inhibition at 1000 g/ha ([8]; Comparative Test 1, redroot pigweed, 1000 g/ha, read-out: Growth inhibition rate): 70 to 90%
inhibition at 250 g/ha [8, 22]: ≥ 70%
inhibition at 500 g/ha ([9]; Comparative Test 1, common chickweed, 500 g/ha, read-out: Growth inhibition rate): ≥ 90%
inhibition at 1000 g/ha ([9]; Comparative Test 1, common chickweed, 1000 g/ha, read-out: Growth inhibition rate): ≥ 90%
inhibition at 250 g/ha ([9]; common chickweed, 250 g/ha, 14th day, read-out: growth inhibition rate): ≥ 70%
inhibition at 500 g/ha ([10]; Comparative Test 1, common lambsquarters, 500 g/ha, read-out: Growth inhibition rate): 70 to 90%
inhibition at 1000 g/ha ([10]; Comparative Test 1, common lambsquarters, 1000 g/ha, read-out: Growth inhibition rate): 70 to 90%
inhibition at 250 g/ha ([10]; common lambsquarters, 250 g/ha, 14th day, read-out: growth inhibition rate): ≥ 70%
inhibition at 500 g/ha ([11]; Comparative Test 1, black nightshade, 500 g/ha, read-out: Growth inhibition rate): 70 to 90%
inhibition at 1000 g/ha ([11]; Comparative Test 1, black nightshade, 1000 g/ha, read-out: Growth inhibition rate): ≥ 90%
inhibition at 250 g/ha ([11]; black nightshade, 250 g/ha, 14th day, read-out: growth inhibition rate): ≥ 70%
inhibition at 500 g/ha ([12]; Comparative Test 2, barnyardgrass, 500 g/ha, read-out: Growth inhibition rate): ≥ 90%
inhibition at 1000 g/ha ([12]; Comparative Test 2, barnyardgrass, 1000 g/ha, read-out: Growth inhibition rate): ≥ 90%
inhibition at 250 g/ha [12, 19]: ≥ 70%
inhibition at 500 g/ha ([13]; Comparative Test 2, crabgrass, 500 g/ha, read-out: Growth inhibition rate): ≥ 90%
inhibition at 1000 g/ha ([13]; Comparative Test 2, crabgrass, 1000 g/ha, read-out: Growth inhibition rate): ≥ 90%
inhibition at 250 g/ha [13, 20]: ≥ 70%
inhibition at 500 g/ha ([14]; Comparative Test 2, green foxtail, 500 g/ha, read-out: Growth inhibition rate): ≥ 90%
inhibition at 1000 g/ha ([14]; Comparative Test 2, green foxtail, 1000 g/ha, read-out: Growth inhibition rate): ≥ 90%
inhibition at 250 g/ha [14, 21]: ≥ 70%
inhibition at 500 g/ha ([15]; 500 g/ha): ≥ 90%
inhibition at 1000 g/ha ([15]; 1000 g/ha): ≥ 90%
inhibition at 500 g/ha ([16]; Comparative Test 2, redroot pigweed, 500 g/ha, read-out: Growth inhibition rate): ≥ 90%
inhibition at 1000 g/ha ([16]; Comparative Test 2, redroot pigweed, 1000 g/ha, read-out: Growth inhibition rate): ≥ 90%
inhibition at 250 g/ha [16, 22]: ≥ 70%
inhibition at 250 g/ha [17]: ≥ 70%
inhibition at 500 g/ha ([18]; 500 g/ha): ≥ 90%
inhibition at 1000 g/ha ([18]; 1000 g/ha): ≥ 90%
